Tests used:
liver ACAT = test: ACAT inhibitory activity (rabbit liver microsome, cholesteryl oleate production); type: biochemical, Japanese white rabbits; settings: 37° C. for 20 min
Method: Male Japanese white rabbits (body weight 2-2.5 kg) were bred on 100 g of a high cholesterol feed (feed added with cholesterol 1%, CLEA Japan, Inc.) daily for 4 weeks and sacrificed by exsanguination under anesthesia. The liver was removed, homogenated and centrifuged at 10,000 rpm and 4° C. for 15 min. The obtained supernatant was further centrifuged at 41,000 rpm and 4° C. for 60 min to give a microsome fraction. To a 0.15 M phosphate buffer were added the microsome suspension as an enzyme specimen, dimethyl sulfoxide (DMSO) or a solution (3 μL) of a test compound in DMSO and [1-14C]-oleoyl-CoA to be a reaction substrate to the total amount of 300 μL. After incubation at 37° C. for 20 min, a mixed solution of chloroform-methanol was added to quench the reaction. Water was added thereto and mixed, and the chloroform layer was separated. The solvent was evaporated to dryness and the residue was redissolved in n-hexane. The resulting solution was subjected to thin layer chromatography using a silica gel plate. The spot of cholesteryl oleate on the silica gel plate was scraped and quantified on a liquid scintillation counter. The ACAT inhibitory activity of the test compound is shown in cholesteryl oleate production inhibitory rate (%) [level of inhibition of cholesteryl oleate production as compared to the control].

[1] = tested on: THP-1 cell-derived macrophage; test: Cholesterol ester accumulation-inhibitory activity (THP-1 cell-derived macrophage foam cell formation); type: cell-based; settings: THP-1 macrophage, acetyl LDL, 3 days
Method: THP-1 cells (DAINIPPON PHARMACEUTICAL CO., LTD.) were subcultured in RPMI-1640 medium containing 10% fetal calf serum (FBS), and cells at 6-13th passage after purchase were used. The cells were suspended in FBS-containing RPMI-1640 medium to give a suspension having a concentration of 4×10^5 cells/mL. The cell suspension was seeded on 12-well microplate by 1 mL, and treated with phorbol 12-myristate 13-acetate (PMA, 200 nM) as a differentiation inducer into macrophage. Then, acetyl LDL (400 μg/mL) separately prepared from LDL derived from plasma of a rabbit with genetic hyperlipidemia (KHC rabbit, Japan Laboratory Animals Inc.) was added. A test compound further dissolved in dimethyl sulfoxide (DMSO) and diluted with FBS-containing RPMI-1640 medium and a control solvent were applied. After cultivation in a carbon dioxide incubator for 3 days, the cells were washed with phosphate-buffered saline (pH 7.0), and the lipid was extracted with hexane-isopropanol (3:2). In addition, the cells were lysed with 1N-NaOH, and the protein content was measured. Free cholesterol and cholesterol ester in the lipid extraction sample were measured according to the method of Kunitomo et al. [Japan. J. Pharmacol., 34, 153-158 (1984)]. Cholesterol esters in the control cells and the cells treated with the test compound were compared, and the cholesterol ester accumulation inhibitory rate of the test compound was calculated.

[2] = tested on: cholesterol secretion from the liver; test: Mouse liver lipid secretion-inhibitory activity (Triton WR-1339 method); type: in vivo, Slc: ICR mice; settings: (10 mg)/kg orally; 3 hr after Triton WR-1339; mice
Method: About 5-week-old male Slc: ICR mice (Japanese SLC) were preliminarily bred for 1 week by feeding only in the daytime (9:00-18:00). During this period, the mice were-allowed to freely take tap water even during night. The mice were divided into a control group and a test compound group (6 mice per group) so that the average and standard deviation of the body weight would be almost the same. Blood (about 80 μL) was drawn from the orbital venous plexus under anesthesia using a glass capillary, and a test compound solution (10 mL/kg) obtained by previously suspending the compound in 5% gum arabic solution at 30 min after the blood sampling was orally administered. At 30 min after the administration, Triton WR-1339 (60 mg/mL) solution previously prepared with physiological saline was administered from the tail vein at a dose of 5 mL/kg. Blood was drawn again from the orbital venous plexus at 3 hr after the administration of Triton WR-1339. Plasma was separated from the blood taken and the total plasma cholesterol (TC) was measured using a commercially available measurement kit (Wako Pure Chemical Industries, Ltd.). The changes in the blood concentration over 3 hr after the Triton WR-1339 administration were calculated and taken as the cholesterol secretion rate from the liver. The secretion rates were compared between the control group and the test compound group, and the cholesterol secretion inhibitory rate by the test compound was calculated.

[3] = Oral administration experiment (plasma concentration); type: in vivo; settings: (10 mg)/kg orally, male SD rats, plasma 0.5-6 hr
Method: The test compound (10 mg)/kg suspended in 5% gum arabic solution was forcedly administered orally to male SD rats (body weight 200-250 g). At 0.5, 1, 2, 4, 6 hr after administration, blood was drawn without anesthesia, and heparin plasma was separated by a conventional method. The concentration of the test compound in the plasma was measured by high performance liquid chromatography.

[4] = Stable radical elimination action (DPPH); settings: 0.1 mM DPPH, room temperature 20 min (Examples 69, 72 and 73)
Method: 0.1 mM Diphenyl-2-picrylhydrazyl (DPPH) acetonitrile (CH3CN) solution (3 mL) was placed in a glass test tube, and a DMSO solution of a test compound was added at a 1% dose (30 μL). As a control, 0.1 mM DPPH CH3CN solution (3 mL) containing DMSO (30 μL) was used and for a blank test, CH3CN (3 mL) containing DMSO (30 μL) was used. After standing the solutions at room temperature for 60 min (20 min for Examples 69, 72 and 73), the absorbance at 517 nm was measured by a spectrophotometer. A stable radical inhibitory rate when control was 100% was calculated from [(absorbance of test substance−absorbance of blank test)÷(absorbance of control−absorbance of blank test)].

## Cc1cc(NC(=O)[C@@H]2Cc3ccc(N(C)C)cc3CN2C(=O)C(C)(C)C)c(C)c(C)c1O.Cl [Example 73, 7-dimethylamino-2-(2,2-dimethylpropionyl)-N-(4-hydroxy-2,3,5-trimethylphenyl)-1,2,3,4-tetrahydroisoquinoline-(3S)-carboxamide hydrochloride]
Liver ACAT
  liver ACAT inhibition rate (%) (concentration: 10^−6 M): 97.7%
[1]
  cholesteryl ester accumulation inhibitory rate (%) (concentration: 10^−6 M): 91.8%
[2]
  Cholesterol secretion inhibitory rate (%) (10 mg)/kg/3 hr: 32.9%
[3]
  maximum blood concentration: 0.55 µg/mL
[4]
  inhibitory rate (%) (10^−4M), stable radical: 97.0%

## C/C=C/C=C/C(=O)N1Cc2cc(N(C)C)ccc2C[C@H]1C(=O)Nc1cc(C)c(O)c(C)c1C.Cl [Example 70, 7-dimethylamino-2-[(2E,4E)-hexadienoyl]-N-(4-hydroxy-2,3,5-trimethylphenyl)-1,2,3,4-tetrahydroisoquinoline-(3S)-carboxamide hydrochloride]
[2]
  Cholesterol secretion inhibitory rate (%) (10 mg)/kg/3 hr: 23.0%

## CCC(C)(C)C(=O)N1Cc2cc(N(C)C)ccc2C[C@H]1C(=O)Nc1cc(C)c(O)c(C)c1C.Cl [Example 69, 7-dimethylamino-2-(2,2-dimethylbutyryl)-N-(4-hydroxy-2,3,5-trimethylphenyl)-1,2,3,4-tetrahydroisoquinoline-(3S)-carboxamide hydrochloride]
[1]
  cholesteryl ester accumulation inhibitory rate (%) (concentration: 10^−6 M): 99.4%
[2]
  Cholesterol secretion inhibitory rate (%) (10 mg)/kg/3 hr: 31.4%
[4]
  inhibitory rate (%) (10^−4M), stable radical: 97.0%

Reference: patent US20100022582A1, “Tetrahydroisoquinoline Compound and Medicinal Use Thereof” (priority 2005, published 2010)
